Reference: US5438052A, “Cephalosporin derivatives” (Hoffmann-La Roche Inc., priority 1991, dated 1995)
In brackets after ≈: the same amount, converted by molar mass. Like-named read-outs stand apart in the source and are kept apart here.

How the values were obtained:
[1] = test system: Pseudomonas aeruginosa BA; test: Experimental systemic septicaemia in the mouse; assay type: in vivo; settings: sc, 96 h
Method: (§1) 2. Experimental systemic septicaemia in the mouse
(§2) An experimental systemic septicaemia was produced in albino mice weighing 16-20 g by intraperitoneally injecting into the experimental animals a sample of a dilute culture of the test organism which had been grown overnight. The sample administered is calculated such that the dosage administered is about 5-100 times greater than the dosage which is required to kill 50% of untreated experimental animals within 48 hours. The bacteria were injected as a suspension in the culture broth. Groups of 5 experimental animals each were used not only for the control, but also for the treatment for each dosage tested. The products in accordance with the invention were administered subcutaneously as a suspension in Tween 80 (2%), whereby the concentrations were chosen such that each experimental animal received 500 μl per administration. The respective concentrations were administered twice, namely 1 and 3 hours after the infection (in the case of P. aeruginosa three times, namely 1, 3 and 5 hours after the infection). The ED50 is that dosage which protects 50% of the experimental animals and was calculated by means of the Probit method on the basis of the survial rate after 4 days following the infection. The ED50 values in mg/kg s.c. (subcutaneous) for representatives of the class of substance in accordance with the invention are given in Table 2 hereinafter.

S. pyogenes 15 = test: Minimum inhibitory concentration in vitro, agar dilution method; assay type: cell-based; settings: Streptococcus pyogenes
Source text: (§3) 1. Minimum Inhibitory Concentration in vitro
(§4) The activities ascertained, minimum inhibitory concentration (MIC) in μg/ml, are compiled in Table 1 hereinafter: […]

E. cloacae P99 = test: as above; assay type: cell-based; settings: Enterobacter cloacae
Source text: as §3, §4

P. vulgaris 1028 = test: as above; assay type: cell-based; settings: Proteus vulgaris
Source text: as §3, §4

S. aureus 6538 = test: as above; assay type: cell-based; settings: Staphylococcus aureus
Source text: as §3, §4

P. aeruginosa 799/WT = test: as above; assay type: cell-based; settings: Pseudomonas aeruginosa
Source text: as §3, §4

P. aeruginosa MK1184 = test: as above; assay type: cell-based; settings: Pseudomonas aeruginosa
Source text: as §3, §4

S. marcescens 69438 = test: as above; assay type: cell-based; settings: Serratia marcescens
Source text: as §3, §4

C. freundii 902 = test: as above; assay type: cell-based; settings: Citrobacter freundii
Source text: as §3, §4

E. cloacae 908SSi = test: as above; assay type: cell-based; settings: Enterobacter cloacae
Source text: as §3, §4

P. aeruginosa 799/61 = test: as above; assay type: cell-based; settings: Pseudomonas aeruginosa
Source text: as §3, §4

P. aeruginosa BA = test: as above; assay type: cell-based; settings: Pseudomonas aeruginosa
Source text: as §3, §4

K. pneumoniae 418 = test: as above; assay type: cell-based; settings: Klebsiella pneumoniae
Source text: as §3, §4

P. mirabilis 2117 = test: as above; assay type: cell-based; settings: Proteus mirabilis
Source text: as §3, §4

E. cloacae 908R = test: as above; assay type: cell-based; settings: Enterobacter cloacae
Source text: as §3, §4

P. aeruginosa 27853 = test: as above; assay type: cell-based; settings: Pseudomonas aeruginosa
Source text: as §3, §4

E. coli 25922 [2] = test: as above; assay type: cell-based; settings: Escherichia coli
Source text: as §3, §4

K. oxytoca 1082 = test: as above; assay type: cell-based; settings: Klebsiella oxytoca
Source text: as §3, §4

E. coli 25922 [3] = test: Experimental systemic septicaemia in the mouse; assay type: in vivo; settings: 96 h
Method: as §1, §2

S. pneumoniae BA = test: Minimum inhibitory concentration in vitro, agar dilution method; assay type: cell-based; settings: Streptococcus pneumoniae; S. pneumoniae BA, agar dilution; read-out: MIC
Source text: as §3, §4

[4] = P. aeruginosa BA, albino mice, s.c. 1, 3 and 5 hours after infection, survival after 4 days, read-out: ED50
[5] = S. pyogenes 15, agar dilution, read-out: MIC
[6] = P. vulgaris 1028, agar dilution, read-out: MIC
[7] = S. aureus 6538, agar dilution, read-out: MIC
[8] = P. aeruginosa 799/WT, agar dilution, read-out: MIC
[9] = P. aeruginosa MK1184, agar dilution, read-out: MIC
[10] = S. marcescens 69438, agar dilution, read-out: MIC
[11] = C. freundii 902, agar dilution, read-out: MIC
[12] = E. cloacae 908SSi, agar dilution, read-out: MIC
[13] = P. aeruginosa 799/61, agar dilution, read-out: MIC
[14] = P. aeruginosa BA, agar dilution, read-out: MIC
[15] = K. pneumoniae 418, agar dilution, read-out: MIC
[16] = P. mirabilis 2117, agar dilution, read-out: MIC
[17] = E. cloacae 908R, agar dilution, read-out: MIC
[18] = P. aeruginosa 27853, agar dilution, read-out: MIC
[19] = E. coli 25922, agar dilution, read-out: MIC
[20] = K. oxytoca 1082, agar dilution, read-out: MIC

SMILES	ED50 [1, 4]	MIC (S. pyogenes 15; [5])	MIC (E. cloacae P99)	MIC (P. vulgaris 1028; [6])	MIC (S. aureus 6538; [7])	MIC (P. aeruginosa 799/WT; [8])	MIC (P. aeruginosa MK1184; [9])	MIC (S. marcescens 69438; [10])	MIC (C. freundii 902; [11])	MIC (E. cloacae 908SSi; [12])	MIC (P. aeruginosa 799/61; [13])	MIC (P. aeruginosa BA; [14])	MIC (K. pneumoniae 418; [15])	MIC (P. mirabilis 2117; [16])	MIC (E. cloacae 908R; [17])	MIC (P. aeruginosa 27853; [18])	MIC (E. coli 25922 [2]; [19])	MIC (K. oxytoca 1082; [20])	MIC (S. pneumoniae BA)	further results
Nc1nc(/C(=N/OCc2nc(=O)c(O)c[nH]2)C(=O)N[C@@H]2C(=O)N3C(C(=O)O)=C(CSc4cc(-c5ccc(O)c(O)c5)nc5ccnn45)CS[C@H]23)cs1 [Example 13, (6R,7R)-7-[(Z)-2-(2-amino-4-thiazolyl)-2-[[(1,4-dihydro-5-hydroxy-4-oxo-2-pyrimidinyl)methoxy]imino]acetamido]-3-[[[5-(3,4-dihydroxyphenyl)pyrazolo[1,5-a]pyrimidin-7-yl]thio]methyl]-8-oxo-5-thia-1-azabicyclo[4.2.0]oct-2-ene-2-carboxylic acid]	4 mg/kg	1 µg/mL (≈ 1.31 µM)	8 µg/mL (≈ 10.5 µM)	0.06 µg/mL (≈ 0.0785 µM)	16 µg/mL (≈ 20.9 µM)	1 µg/mL (≈ 1.31 µM)	8 µg/mL (≈ 10.5 µM)	0.12 µg/mL (≈ 0.157 µM)	0.25 µg/mL (≈ 0.327 µM)	4 µg/mL (≈ 5.23 µM)	0.06 µg/mL (≈ 0.0785 µM)	2 µg/mL (≈ 2.62 µM)	0.06 µg/mL (≈ 0.0785 µM)	0.06 µg/mL (≈ 0.0785 µM)	1 µg/mL (≈ 1.31 µM)	4 µg/mL (≈ 5.23 µM)	0.06 µg/mL (≈ 0.0785 µM)	0.06 µg/mL (≈ 0.0785 µM)		
Cc1cc(SCC2=C(C(=O)[O-])N3C(=O)[C@@H](NC(=O)/C(=N\OCS(=O)(=O)c4ccc(O)c(O)c4)c4csc(N)n4)[C@H]3SC2)n2nc(CS(=O)(=O)c3ccc(O)c(O)c3)nc2n1.[Na+] [Example 10, (6R,7R)-7-[(Z)-2-(2-amino-4-thiazolyl)-2-[[[(3,4-dihydroxyphenyl)sulphonyl]methoxy]imino]acetamido]-3-[[[2-[[(3,4-dihydroxyphenyl)sulphonyl]methyl]-5-methyl-s-triazolo[1,5-a]pyrimidin-7-yl]thio]methyl]-8-oxo-5-thia-1-azabicyclo[4.2.0]oct-2-ene-2-carboxylic acid sodium salt (1:1)]			16 µg/mL																	ED50 [1]: 0.15 mg/kg; ED50 (E. coli 25922 [3]; Escherichia coli, 25922, sc): < 0.1 mg/kg; MIC (S. pyogenes 15; 15): 4 µg/mL; MIC (P. vulgaris 1028; 1028): < 0.1 µg/mL; MIC (S. aureus 6538; 6538): 32 µg/mL; MIC (P. aeruginosa 799/WT; 799/WT): < 0.1 µg/mL; MIC (P. aeruginosa MK1184; MK1184): < 0.1 µg/mL; MIC (S. marcescens 69438; 69438): 0.12 µg/mL; MIC (C. freundii 902; 902): 0.12 µg/mL; MIC (E. cloacae 908SSi; 908SSI): 8 µg/mL; MIC (P. aeruginosa 799/61; 799/61): < 0.1 µg/mL; MIC (P. aeruginosa BA): < 0.1 µg/mL; MIC (K. pneumoniae 418; 418): < 0.1 µg/mL; MIC (P. mirabilis 2117; 2117): < 0.1 µg/mL; MIC (E. cloacae 908R; 908R): 2 µg/mL; MIC (P. aeruginosa 27853; 27853): < 0.1 µg/mL; MIC (E. coli 25922 [2]; 25922): < 0.1 µg/mL; MIC (K. oxytoca 1082; 1082): 4 µg/mL
Cc1cc(SCC2=C(C(=O)O)N3C(=O)[C@@H](NC(=O)/C(=N\OC(C)(C)C(=O)NO)c4csc(N)n4)[C@H]3SC2)n2nc(CNS(=O)(=O)c3ccc(O)c(O)c3)nc2n1 [Example 1, (6R,7R)-7-[(Z)-2-(2-amino-4-thiazolyl)-2-[[(1-hydroxycarbamoyl)-1-methylethoxy]imino]acetamido]-3-[[[2-[(3,4-dihydroxybenzenesulphonamido)methyl]-5-methyl-s-triazolo[1.5-a]pyrimidin-7-yl]thio]methyl]-8-oxo-5-thia-1-azabicyclo[4.2.0]oct-2-ene-2-carboxylic acid]		4 µg/mL (≈ 4.71 µM)	32 µg/mL (≈ 37.7 µM)	0.5 µg/mL (≈ 0.588 µM)	16 µg/mL (≈ 18.8 µM)	0.5 µg/mL (≈ 0.588 µM)	4 µg/mL (≈ 4.71 µM)	0.25 µg/mL (≈ 0.294 µM)	1 µg/mL (≈ 1.18 µM)	4 µg/mL (≈ 4.71 µM)	0.25 µg/mL (≈ 0.294 µM)	0.5 µg/mL (≈ 0.588 µM)	0.12 µg/mL (≈ 0.141 µM)	0.12 µg/mL (≈ 0.141 µM)	16 µg/mL (≈ 18.8 µM)	4 µg/mL (≈ 4.71 µM)	0.25 µg/mL (≈ 0.294 µM)	0.5 µg/mL (≈ 0.588 µM)		
Nc1nc(/C(=N/OCc2ccc(O)c(O)c2)C(=O)N[C@@H]2C(=O)N3C(C(=O)O)=C(CS(=O)(=O)c4ccc(O)c(O)c4)CS[C@H]23)cs1 [Example 23, (6R,7R)-7-[(Z)-2-(2-amino-4-thiazolyl)-2-[[(3,4-dihydroxybenzyl)oxy]imino]acetamido]-3-[[(3,4-dihydroxyphenyl)sulphonyl]methyl]-8-oxo-5-thia-1-azabicyclo[4.2.0]oct-2-ene-2-carboxylic acid]		4 µg/mL (≈ 5.9 µM)	> 32 µg/mL	2 µg/mL (≈ 2.95 µM)	16 µg/mL (≈ 23.6 µM)	1 µg/mL (≈ 1.48 µM)	> 32 µg/mL	2 µg/mL (≈ 2.95 µM)	4 µg/mL (≈ 5.9 µM)	16 µg/mL (≈ 23.6 µM)	0.12 µg/mL (≈ 0.177 µM)	32 µg/mL (≈ 47.2 µM)	0.12 µg/mL (≈ 0.177 µM)	1 µg/mL (≈ 1.48 µM)	> 32 µg/mL	32 µg/mL (≈ 47.2 µM)	0.25 µg/mL (≈ 0.369 µM)	16 µg/mL (≈ 23.6 µM)	4 µg/mL (≈ 5.9 µM)	
CC(C)(O/N=C(\C(=O)N[C@@H]1C(=O)N2C(C(=O)O)=C(CSc3nnc(-c4ccc(O)c(O)c4)o3)CS[C@H]12)c1csc(N)n1)C(=O)NNC(=O)c1ccc(O)c(O)c1 [Example 45, (6R,7R)-7-[(Z)-2-(2-amino-4-thiazolyl)-2-[[1-[3-(3,4-dihydroxybenzoyl)carbazoyl]-1-methylethoxy]imino]acetamido]-3-[[[5-(3,4-dihydroxyphenyl)-1,3,4-oxadiazol-2-yl]thio]methyl]-8-oxo-5-thia-1-azabicyclo[4.2.0]oct-2-ene-2-carboxylic acid]	2.1 mg/kg	1 µg/mL (≈ 1.21 µM)	> 32 µg/mL		16 µg/mL (≈ 19.3 µM)	0.06 µg/mL (≈ 0.0725 µM)	1 µg/mL (≈ 1.21 µM)	0.06 µg/mL (≈ 0.0725 µM)	0.06 µg/mL (≈ 0.0725 µM)	2 µg/mL (≈ 2.42 µM)	0.64 µg/mL (≈ 0.773 µM)	0.06 µg/mL (≈ 0.0725 µM)	0.06 µg/mL (≈ 0.0725 µM)		> 32 µg/mL	0.12 µg/mL (≈ 0.145 µM)	0.06 µg/mL (≈ 0.0725 µM)	0.06 µg/mL (≈ 0.0725 µM)	0.25 µg/mL (≈ 0.302 µM)	ED50 (E. coli 25922 [3]; Escherichia coli, sc, E. coli 25922, albino mice, s.c. 1 and 3 hours after infection, survival after 4 days, read-out: ED50): 0.13 mg/kg
